The source of these data is ChEMBL document CHEMBL3351804, “Development of 2-aryl substituted quinazolin-4(3H)-one, pyrido[4,3-d]pyrimidin-4(3H)-one and pyrido[2,3-d]pyrimidin-4(3H)-one derivatives as microsomal prostaglandin E(2) synthase-1 inhibitors” (Bioorg Med Chem Lett, 2014).

Series [1] addresses T1, Cytosolic phospholipase A2 (Homo sapiens) (UniProt P47712).
T1 sequence (whole entry): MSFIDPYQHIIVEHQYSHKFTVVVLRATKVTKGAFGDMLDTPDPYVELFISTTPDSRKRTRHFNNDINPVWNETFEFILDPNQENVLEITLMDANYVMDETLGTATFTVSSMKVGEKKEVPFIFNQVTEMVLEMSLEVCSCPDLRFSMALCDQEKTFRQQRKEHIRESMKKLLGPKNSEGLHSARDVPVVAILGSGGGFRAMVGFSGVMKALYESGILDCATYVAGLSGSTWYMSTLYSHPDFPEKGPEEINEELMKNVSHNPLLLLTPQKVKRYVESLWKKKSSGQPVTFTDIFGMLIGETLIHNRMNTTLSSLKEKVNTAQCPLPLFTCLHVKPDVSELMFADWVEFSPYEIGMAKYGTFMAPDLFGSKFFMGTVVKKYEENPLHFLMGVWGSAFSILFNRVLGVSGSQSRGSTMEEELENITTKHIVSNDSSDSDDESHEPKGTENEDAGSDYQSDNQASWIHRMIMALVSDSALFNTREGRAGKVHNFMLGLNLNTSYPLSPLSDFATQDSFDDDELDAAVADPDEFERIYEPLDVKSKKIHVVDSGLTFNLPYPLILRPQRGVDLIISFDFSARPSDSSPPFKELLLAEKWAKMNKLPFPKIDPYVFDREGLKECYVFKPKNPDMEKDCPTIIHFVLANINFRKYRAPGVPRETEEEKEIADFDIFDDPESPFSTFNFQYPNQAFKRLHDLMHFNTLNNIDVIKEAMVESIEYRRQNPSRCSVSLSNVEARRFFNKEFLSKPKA
Briefly: Inhibition of cPLA2 (unknown origin) at 10 uM.

The nature of series [2]: Tmax in Sprague-Dawley rat at 10 mg/kg, po. Format: ADME, organism-based. Also noted: dose 10 mg/kg, route oral. The following applies: in vivo.
The nature of series [3]: Inhibition of mPGES-1 in guinea pig whole blood assessed as inhibition of LPS-induced PGE2 production after overnight incubation. Type of series: tissue-based. The following applies: Cavia porcellus.

One may read the inhibition as the relative decrease from the control value, in per cent. In general, Tmax refers to the time from dosing to the highest level. One may read the IC50 as the concentration needed to halve the response being measured. In series [1], `CC(C)C(=O)NCc1ccc(Cl)c(-c2nc3cc(-c4ccc(C(F)(F)F)cc4)ncc3c(=O)[nH]2)c1` had an inhibition of 12.1%. The time of peak concentration (Tmax) in series [2] came to 24 h. The 50% inhibitory concentration (IC50) in series [3] was found to be 161 nM.
